# Reference: patent US7417050B2 (priority 2002, dated 2008)
# Biological target: α7 nAChR subtype (Rattus norvegicus, UniProt Q05941)
# Assay type: binding
# Settings: read-out: KD of radioligand
# Sequence of α7 nAChR subtype (Q05941 23-502 limits assumed): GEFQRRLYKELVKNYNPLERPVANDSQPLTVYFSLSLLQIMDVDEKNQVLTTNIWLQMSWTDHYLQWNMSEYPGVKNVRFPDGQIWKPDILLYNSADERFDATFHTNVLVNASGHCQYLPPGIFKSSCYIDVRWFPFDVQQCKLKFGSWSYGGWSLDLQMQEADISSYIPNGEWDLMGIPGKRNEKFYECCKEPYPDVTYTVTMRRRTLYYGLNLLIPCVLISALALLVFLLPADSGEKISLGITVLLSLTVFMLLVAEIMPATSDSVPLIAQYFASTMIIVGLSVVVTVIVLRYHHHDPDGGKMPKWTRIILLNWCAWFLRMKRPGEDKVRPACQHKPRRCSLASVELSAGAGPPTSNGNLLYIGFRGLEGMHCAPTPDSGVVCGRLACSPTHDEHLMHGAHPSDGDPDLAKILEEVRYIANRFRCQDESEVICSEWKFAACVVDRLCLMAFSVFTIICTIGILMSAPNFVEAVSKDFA
substance,measurement,value
[^125I]-α-Bungarotoxin [[^125I]-α-BTX],Kd,1.67 nM
